Experimental data as given in patent publication US8791263B2, “Cortistatin A analog and use thereof” (Osaka University, priority 2010, dated 2014).
Read-outs that look alike come from different tables or passages of the source.

How the values were obtained:
[1] = tested on: normal human umbilical vein endothelial cells (HUVEC); assay: anti-proliferative activity against HUVEC (WST-8); assay type: cell-based; details: for selective anti-proliferative activity against vascular endothelial cells: HUVEC versus KB3-1, FIGS. 8 to 12; for IC50: Homo sapiens, HUVEC, 72 hours culture with compound, WST-8; for S.I. (Selective Index): IC50 against KB3-1 divided by IC50 against HUVEC
Description: (§1) CA-1, which is represented by formula (II), was used as test compound, and an existing anticancer drug doxorubicin was used as a control compound. The test compound and the control compound were separately dissolved at predetermined concentrations in EtOH. The cells used were normal human umbilical vein endothelial cells (HUVEC) and human pharyngeal carcinoma KB3-1 cells.
(§2) HUVEC and KB3-1 were seeded in separate 96-well multiwell plates at 2×10^3 cells/100 μL/well and cultured in an atmosphere of 5% CO2 at 37° C. for 24 hours. Next, 1.0 μL each of the ethanol solutions containing the test compound or the control compound at various concentrations were added, and the cells were cultured under the same conditions for additional 72 hours. After 72 hours, 10 μL of WST-8 (2-(2-methoxy-4-nitrophenyl)-3-(4-nitrophenyl)-5-(2,4-disulfophenyl)-2H-tetrazolium, monosodium salt) reagent was added. After 3-hour incubation, the amount of water-soluble formazan formed in viable cells was calorimetrically determined by measurement at OD 450 nm, and the growth inhibition ratio was calculated by comparison of the amount of formazan between the compound treatment groups and the non-treatment group. The anti-proliferative activities of the test compound and the control compound on each type of cells were expressed as a 50% growth inhibitory concentration (IC50 value). The cell type selectivity (Selective Index (S. I.) value) was expressed as a value resulting from division of the IC50 value against KB3-1 by the IC50 value against HUVEC.
CA-1, CA-2, CA-3, CA-4 and CA-5 were evaluated for anti-proliferative activity against normal human umbilical vein endothelial cells (HUVEC) and human pharyngeal carcinoma KB3-1 cells. The five test compounds were separately dissolved at predetermined concentrations in EtOH. HUVEC and KB3-1 were seeded in separate 96-well multiwell plates at 2×10^3 cells/100 μL/well and cultured in an atmosphere of 5% CO2 at 37° C. for 24 hrs. Next, 1.0 μL each of the ethanol solutions containing the test compound or the control compound at various concentrations were added, and the cells were cultured under the same conditions for additional 72 hours. After 72 hours, 10 μL of WST-8 (2-(2-methoxy-4-nitrophenyl)-3-(4-nitrophenyl)-5-(2,4-disulfophenyl)-2H-tetrazolium, monosodium salt) reagent was added. After 3-hour incubation, the amount of water-soluble formazan formed in viable cells was colorimetrically determined measurement at OD 450 nm, and the growth inhibition ratio was calculated by comparison of the amount of formazan between the compound treatment groups and the non-treatment group.

[2] = tested on: Matrigel with proangiogenic factor bFGF (angiogenesis); assay: in vivo anti-angiogenic activity after intraperitoneal administration (Matrigel, hemoglobin); details: not less than 10 mg/kg, once every two days, 5 times, ddY mice
Description: (§3) The test compound CA-1 was suspended at predetermined concentrations in 1% CMC. To control groups, the vehicle (1% CMC) was administered.
(§4) To 500 μL of Matrigel (trade name, manufactured by BD), 200 ng/mL of a proangiogenic factor bFGF (basic fibroblast growth factor) and 100 U/mL of heparin were added, and the mixture was subcutaneously injected into the flanks of female ddY mice (6-week old) with an injection needle of 23G. After the Matrigel injection, the test compound CA-1 or the vehicle (1% CMC) was intraperitoneally administered on a schedule of once every two days, 5 times in total. Aside from this, Matrigel without bFGF was injected into a group of mice and then the vehicle was administered thereto (negative control group). The anti-angiogenic effect was evaluated as follows: the day after the final administration of the test compound, the implanted Matrigel was harvested and weighed, and then the amount of hemoglobin accumulated in the Matrigel was compared between the test compound administration groups and the control groups. Significance analysis was performed using a Dunnett's test at a significance level of 5%.

[3] = tested on: Matrigel with proangiogenic factor bFGF (angiogenesis); assay: in vivo anti-angiogenic activity after oral administration (Matrigel, hemoglobin); design: species or system mice
Description: as §3, §4
The test was performed in the same manner as in Example 3, except that oral administration was performed instead of intraperitoneal administration and that a 5.0 mg/kg administration group was additionally included.

Mouse sarcoma S180 cells [4] = assay: antitumor activity in mouse cancer cell transplant model after intraperitoneal administration; assay type: in vivo, mice; details: for tumor weight, % of that of the control group: intraperitoneal, once every two days, 7 times
Description: (§5) The test compound CA-1 was suspended at predetermined concentrations in 1% CMC. The vehicle (1% CMC) was administered to the control group.
(§6) Mouse sarcoma S180 cells were suspended at 1×10^7 cells/mL in a serum-free RPMI culture medium and the suspension was kept on ice. Then, the S180 cell suspension was subcutaneously inoculated at 1×10^6 cells/100 μL/mouse into the flanks of female ddY mice (5-week old) with an injection needle of 23G. The mice were maintained for one week for engraftment of the S180 cells. Subsequently, the test compound (5 mg/kg, 10 mg/kg and 25 mg/kg) or the vehicle (1% CMC) was intraperitoneally administered on a schedule of on every two days, 7 times in total. The antitumor activity was evaluated as follows: one day after the final administration, tumors were isolated and weighed, and then the tumor weight was compared between the test compound administration groups and the control group.

Mouse sarcoma S180 cells [5] = assay: antitumor activity in mouse cancer cell transplant model after oral administration; assay type: in vivo, mice; details: for tumor weight, % of that of the control group: oral
Description: as §5, §6
The test was performed in the same manner as in Example 3, except that oral administration was performed instead of intraperitoneal administration and that a 50 mg/kg administration group was included instead of the 5 mg/kg administration group.

[6] = tested on: human umbilical vein endothelial cells (HUVEC); assay: migration and tubulogenesis of HUVEC; assay type: cell-based
[7] = tested on: human pharyngeal carcinoma KB3-1 cells; assay: anti-proliferative activity against KB3-1 (WST-8); assay type: cell-based; details: KB 3-1, 72 hours culture with compound
Description: as §1
as §2, with “After 72 hours, 10 μL of WST-8 (2-(2-methoxy-4-nitrophenyl)-3-(4-nitrophenyl)-5-(2,4-disulfophenyl)-2H-tetrazolium, monosodium salt) reagent was added.” left out, “The anti-proliferative activities of the test compound and the control compound on each type of cells were expressed as a 50% growth inhibitory concentration (IC50 value).” left out
CA-1, CA-2, CA-3, CA-4 and CA-5 were evaluated for anti-proliferative activity against normal human umbilical vein endothelial cells (HUVEC) and human pharyngeal carcinoma KB3-1 cells. […]

[8] = tested on: human umbilical vein endothelial cells (HUVEC); details: cited from earlier work
[9] = tested on: human umbilical vein endothelial cells (HUVEC); details: background art; cited from earlier work

C[C@]12C=CC3=CC4=C(CC(CO)CC4=O)O[C@H]3[C@@H]1CC[C@@H]2c1ccc2ccncc2c1 (stereo partly drawn) [CA-2, (3R,3aR,11aS,11bR)-9-(hydroxymethyl)-3-(isoquinolin-7-yl)-3a-methyl-1,3,3a,8,9,10,11a,11b-octahydrocyclopenta[c]xanthen-7(2H)-one]
selective anti-proliferative activity against vascular endothelial cells [1]: selectively inhibits the growth of vascular endothelial cells | selective anti-proliferative activity against vascular endothelial cells ([1]; listed as (XVIII)): selective anti-proliferative activity against vascular endothelial cells in a broad range of concentration

C[C@]12C=CC3=CC4=C(CCCC4=O)O[C@H]3[C@@H]1CC(=O)[C@@H]2c1ccc2ccncc2c1 [CA-5, (3R,3aS,11aS,11bR)-3-(isoquinolin-7-yl)-3a-methyl-1,3,3a,9,10,11b-hexahydrocyclopenta[c]xanthene-2,7(8H,11aH)-dione]
selective anti-proliferative activity against vascular endothelial cells [1]: selectively inhibits the growth of vascular endothelial cells | selective anti-proliferative activity against vascular endothelial cells ([1]; listed as (LIV)): selective anti-proliferative activity against vascular endothelial cells in a broad range of concentration

C[C@]12C=CC3=CC4=C(CCCC4=O)O[C@H]3[C@@H]1CC[C@@H]2c1ccc2ccncc2c1 [CA-1, (3R,3aR,11aS,11bR)-3-(isoquinolin-7-yl)-3a-methyl-1,2,3,3a,9,10,11a,11b-octahydrocyclopenta[c]xanthen-7(8H)-one]
amount of hemoglobin accumulated in the Matrigel [2]: significantly reduced the amount of hemoglobin accumulated in the Matrigel to almost the same level as that of the group injected with Matrigel not supplemented with the proangiogenic factor bFGF | amount of hemoglobin accumulated in the Matrigel ([3]; 50 mg/kg): reduced to almost the same level as that of the group injected with Matrigel not supplemented with the proangiogenic factor bFGF | amount of hemoglobin accumulated in the Matrigel ([3]; not less than 10 mg/kg): significantly reduced the amount of hemoglobin accumulated in the Matrigel | tumor weight, % of that of the control group (Mouse sarcoma S180 cells [4]; 5 mg/kg): 34% | tumor weight, % of that of the control group (Mouse sarcoma S180 cells [4]; 10 mg/kg): 23% | tumor weight, % of that of the control group (Mouse sarcoma S180 cells [4]; 25 mg/kg): 17% | weight loss, diarrhea, visual abnormalities in organs (Mouse sarcoma S180 cells [4]; intraperitoneal, 5, 10 and 25 mg/kg groups): In no groups, weight loss or diarrhea, or visual abnormalities in organs of the mice were observed | tumor weight, % of that of the control group (Mouse sarcoma S180 cells [5]; 10 mg/kg): 67% | tumor weight, % of that of the control group (Mouse sarcoma S180 cells [5]; 25 mg/kg): 50% | tumor weight, % of that of the control group (Mouse sarcoma S180 cells [5]; 50 mg/kg): 25% | weight loss, diarrhea, visual abnormalities in organs (Mouse sarcoma S180 cells [5]; oral, 10, 25 and 50 mg/kg groups): In no groups, weight loss or diarrhea, or visual abnormalities in organs of the mice were observed | migration and tubulogenesis of HUVEC [6]: inhibits the migration and tubulogenesis of human umbilical vein endothelial cells (HUVEC) | selective anti-proliferative activity against vascular endothelial cells [1]: selectively inhibits the growth of vascular endothelial cells | IC50 [1]: 100 nM | S.I. (Selective Index) [1]: 105 | anti-proliferative activity against vascular endothelial cells, times stronger than against other cancer cells ([1]; versus other cancer cells): more than 100 times | IC50 [7]: 10500 nM

COc1cccc2c1C(=O)c1c(O)c3c(c(O)c1C2=O)C[C@@](O)(C(=O)CO)C[C@@H]3O[C@H]1C[C@H](N)[C@H](O)[C@H](C)O1 [doxorubicin, reference compound]
IC50 [1]: 130 nM | S.I. (Selective Index) [1]: 2.7 | IC50 [7]: 360 nM

CN(C)[C@H]1C[C@@]23CC[C@@]4(O2)C(=CC[C@]2(C)[C@@H](c5ccc6ccncc6c5)CC[C@H]24)C=C3[C@@H](O)[C@@H]1O [cortistatin A]
IC50 ([8]; background art, read-out: IC50 against HUVEC): 1.8 nM | anti-proliferative activity against HUVEC, times stronger than against other cancer cells ([8]; versus other cancer cells): more than 3000 times | migration and tubulogenesis of HUVEC [9]: inhibits the migration and tubulogenesis of HUVEC

C[C@]12C=CC3=CC4=C(CC(C(=O)O)CC4=O)O[C@H]3[C@@H]1CC[C@@H]2c1ccc2ccncc2c1 (stereo partly drawn) [CA-4, (3R,3aR,11aS,11bR)-3-(isoquinolin-7-yl)-3a-methyl-7-oxo-1,2,3a,7,8,9,10,11a,11b-decahydrocyclopenta[c]xanthene-9-carboxylic acid]
selective anti-proliferative activity against vascular endothelial cells [1]: selectively inhibits the growth of vascular endothelial cells | selective anti-proliferative activity against vascular endothelial cells ([1]; listed as (XXIII)): selective anti-proliferative activity against vascular endothelial cells in a broad range of concentration

C[C@]12C=CC3=CC4=C(CC(CN)CC4=O)O[C@H]3[C@@H]1CC[C@@H]2c1ccc2ccncc2c1 (stereo partly shown) [CA-3]
selective anti-proliferative activity against vascular endothelial cells [1]: selectively inhibits the growth of vascular endothelial cells | selective anti-proliferative activity against vascular endothelial cells ([1]; listed as (XIX)): selective anti-proliferative activity against vascular endothelial cells in a broad range of concentration
